From patent publication US20150359731A1, “PHYLLANTHUS ACIDUS EXTRACTS AND METHODS OF USE” (AVON PRODUCTS, INC, priority 2013, published 2015)

Tested on: dorsal forearm skin of healthy female Caucasian subjects with mild to moderate photo damage
Test: In vivo biopsy, histology of treated dorsal forearm skin
Design: species or system human
Details: 3 weeks semi-occlusion patch, 2 mg/cm^2, extract 0.33%, retinol 0.05% active
Method: Healthy female Caucasian subjects aged 30-65, with skin type II or III and mild to moderate photo damage, were treated on the dorsal forearm for 3 weeks (3 consecutive rounds of 5×24 hour) under semi-occlusion patches. Test articles including active ingredients, vehicle controls, and retinol were applied in a randomized allocation on 6 sites on each forearm. The application dose was 2 mg/cm^2. After 3 week treatment, a 2 mm punch biopsy was obtained from each treatment site and fixed in 10% buffered formalin. Tissue samples then embedded in paraffin, sectioned (5 μm thickness), and stained for skin markers after re-hydration. […] Retinol at a active concentration of 0.05% was used a positive control. Retinol use at a 0.05% active concentration in the semi-occlusion patch vehicle formulation yielded a visual score of approximately 0.56 out of a 4 point scale in HE staining (measuring hematoxylin and eosin staining, an indication of viable epidermal thickness and health) with 63.6% of the subjects showing an improvement; a visual score of 0.6 out of a 4 point scale in M-TC staining (Masson's trichrome staining, assessing total mature fiber-forming collagen in the dermis—mainly Collagen I, […] and Collagen V) with 51.6% of the subjects showing an improvement; a visual score of 0.52 out of a 4 point scale for pro-Col (measuring new synthesis of Collagen I by skin fibroblasts in the dermis) with 51.6% of the subjects showing an improvement; and a visual score of 0.57 out of a 4 point scale for HA (measuring level of hyaluronic acid in both dermis and epidermis) with 50% of the subjects showing an improvement.

CC1=C(/C=C/C(C)=C/C=C/C(C)=C/CO)C(C)(C)CCC1 [Retinol]
subjects showing an improvement, HA: 50%
subjects showing an improvement, HE staining: 63.6%
subjects showing an improvement, M-TC staining: 51.6%
subjects showing an improvement, pro-Col: 51.6%
visual score for HA (level of hyaluronic acid in both dermis and epidermis) (out of a 4 point scale): 0.57
visual score for pro-Col (new synthesis of Collagen I by skin fibroblasts in the dermis) (out of a 4 point scale): 0.52
visual score in HE staining (viable epidermal thickness and health) (out of a 4 point scale): approximately 0.56
visual score in M-TC staining (total mature fiber-forming collagen in the dermis) (out of a 4 point scale): 0.6
